According to patent US20100010096A1, “Methadone chiral isolate as an improved pharmaceutical” (priority 2006, published 2010):

Target: T1, IKr channel (Homo sapiens, UniProt Q12809)
T1 construct: expressed in transfected cells; host or cells: Xenopus oocytes (cRNA injection)
Assay: IKr inhibition in xenopus oocytes overexpressing the IKr channel, two electrode voltage clamp
Type: cell-based
Conditions: methadone racemate 0.01 to 3 mM, FIG. 3

T1 sequence (Q12809 whole entry): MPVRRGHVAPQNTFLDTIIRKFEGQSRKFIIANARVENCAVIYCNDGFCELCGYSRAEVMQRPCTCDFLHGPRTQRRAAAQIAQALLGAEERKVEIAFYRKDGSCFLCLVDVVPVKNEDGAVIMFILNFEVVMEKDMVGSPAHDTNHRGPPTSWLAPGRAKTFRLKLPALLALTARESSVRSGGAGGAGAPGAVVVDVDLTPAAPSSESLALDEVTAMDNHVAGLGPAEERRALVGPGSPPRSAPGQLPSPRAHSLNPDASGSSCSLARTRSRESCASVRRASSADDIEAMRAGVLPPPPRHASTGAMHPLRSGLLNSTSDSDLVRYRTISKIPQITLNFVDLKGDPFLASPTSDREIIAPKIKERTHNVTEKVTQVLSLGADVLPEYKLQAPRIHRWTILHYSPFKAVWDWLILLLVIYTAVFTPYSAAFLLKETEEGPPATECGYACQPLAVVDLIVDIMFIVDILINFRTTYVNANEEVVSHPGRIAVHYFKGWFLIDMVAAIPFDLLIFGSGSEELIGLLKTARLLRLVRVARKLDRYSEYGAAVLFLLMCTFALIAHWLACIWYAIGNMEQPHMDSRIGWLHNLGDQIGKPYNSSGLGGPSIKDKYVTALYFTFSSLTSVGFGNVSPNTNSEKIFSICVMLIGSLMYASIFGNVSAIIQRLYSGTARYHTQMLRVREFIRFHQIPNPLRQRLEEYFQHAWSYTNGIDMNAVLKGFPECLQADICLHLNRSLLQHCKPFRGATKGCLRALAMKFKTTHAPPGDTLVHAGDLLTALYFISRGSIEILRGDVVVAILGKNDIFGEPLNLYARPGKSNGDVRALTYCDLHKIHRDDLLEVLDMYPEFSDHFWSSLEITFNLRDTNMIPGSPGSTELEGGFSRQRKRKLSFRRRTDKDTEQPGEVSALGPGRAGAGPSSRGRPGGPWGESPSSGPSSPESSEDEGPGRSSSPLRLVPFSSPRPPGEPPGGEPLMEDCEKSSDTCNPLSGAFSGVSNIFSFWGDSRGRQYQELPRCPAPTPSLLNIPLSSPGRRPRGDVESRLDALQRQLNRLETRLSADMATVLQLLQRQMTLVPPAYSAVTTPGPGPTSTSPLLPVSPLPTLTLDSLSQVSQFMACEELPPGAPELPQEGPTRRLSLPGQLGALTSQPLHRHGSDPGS

CCC(=O)C(CC(C)N(C)C)(c1ccccc1)c1ccccc1 (racemic) [methadone]
inhibition of the IKr current: dose related inhibition of the IKr current
